The test system of test [1] is MDA-MB-415. In words: OncoPanel cell proliferation assay (10-day). Type of test: cell-based, human. The note with it: for EC50 / GI50 / IC50: Homo sapiens, MDA-MB-415, Breast; for EC50: read-out: Cell Count EC50; for GI50: read-out: Cell Count GI50; for IC50: read-out: Cell Count IC50.
For test [2], the system named is IM-9. The test can be described thus: OncoPanel cell proliferation assay (10-day). The format is cell-based, human. The following applies: for EC50 / GI50 / IC50: Homo sapiens, IM-9, Myeloma; for EC50: read-out: Cell Count EC50; for GI50: read-out: Cell Count GI50; for IC50: read-out: Cell Count IC50.
For test [3], the target named is T1, BAZ2B (h) bromodomain (Homo sapiens, UniProt Q9UIF8).
T1 construct: Bromodomain
T1 sequence (Q9UIF8 2060-2164 limits assumed): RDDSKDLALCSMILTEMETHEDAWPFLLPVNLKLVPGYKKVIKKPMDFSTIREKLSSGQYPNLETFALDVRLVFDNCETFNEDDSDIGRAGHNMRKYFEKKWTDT
In words: Epigenetic binding assay, Bromodomain. The following applies: read-out: % Inhibition of Control Specific Binding.

Test [4] has as its target T2, HDAC6 (h) (Homo sapiens, UniProt Q9UBN7).
T2 sequence (Q9UBN7 1-1215): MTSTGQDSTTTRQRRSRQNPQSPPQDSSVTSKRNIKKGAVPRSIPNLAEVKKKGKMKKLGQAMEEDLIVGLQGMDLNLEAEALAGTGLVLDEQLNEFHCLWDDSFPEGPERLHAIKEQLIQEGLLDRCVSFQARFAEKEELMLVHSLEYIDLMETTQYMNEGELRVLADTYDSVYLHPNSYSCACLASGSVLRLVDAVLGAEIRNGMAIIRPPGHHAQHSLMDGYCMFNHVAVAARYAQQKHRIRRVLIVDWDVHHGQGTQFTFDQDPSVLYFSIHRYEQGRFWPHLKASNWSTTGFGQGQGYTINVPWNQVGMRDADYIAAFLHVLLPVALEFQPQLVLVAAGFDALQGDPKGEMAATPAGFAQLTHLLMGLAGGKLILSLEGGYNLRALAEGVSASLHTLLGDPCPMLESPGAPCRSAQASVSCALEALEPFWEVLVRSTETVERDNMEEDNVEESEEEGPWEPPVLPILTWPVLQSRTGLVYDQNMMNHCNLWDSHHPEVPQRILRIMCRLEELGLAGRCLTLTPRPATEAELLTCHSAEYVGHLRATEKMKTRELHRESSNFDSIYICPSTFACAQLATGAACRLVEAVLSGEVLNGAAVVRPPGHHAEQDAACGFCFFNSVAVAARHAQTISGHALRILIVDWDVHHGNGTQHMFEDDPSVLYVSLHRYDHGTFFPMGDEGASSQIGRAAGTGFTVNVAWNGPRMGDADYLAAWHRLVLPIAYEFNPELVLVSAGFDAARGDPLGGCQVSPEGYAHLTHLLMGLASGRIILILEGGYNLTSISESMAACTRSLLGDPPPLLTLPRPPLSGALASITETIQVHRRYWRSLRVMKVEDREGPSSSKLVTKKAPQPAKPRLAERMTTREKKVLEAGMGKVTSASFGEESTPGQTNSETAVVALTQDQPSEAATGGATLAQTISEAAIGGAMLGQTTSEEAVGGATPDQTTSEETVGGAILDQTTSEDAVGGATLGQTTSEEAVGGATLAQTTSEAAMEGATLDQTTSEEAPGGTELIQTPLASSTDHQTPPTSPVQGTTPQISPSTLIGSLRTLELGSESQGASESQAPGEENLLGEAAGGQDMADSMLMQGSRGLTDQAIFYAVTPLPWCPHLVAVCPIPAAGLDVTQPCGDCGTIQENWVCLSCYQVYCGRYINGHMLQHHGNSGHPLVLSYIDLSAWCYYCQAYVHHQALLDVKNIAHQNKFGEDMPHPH
In words: Epigenetic enzyme assay, Histone deacetylase (HDACs). The format is biochemical. The note with it: read-out: % Inhibition of Control Values.

Test [5] deals with T3, HDAC7 (h) (Homo sapiens, UniProt Q8WUI4).
T3 sequence (Q8WUI4 1-952): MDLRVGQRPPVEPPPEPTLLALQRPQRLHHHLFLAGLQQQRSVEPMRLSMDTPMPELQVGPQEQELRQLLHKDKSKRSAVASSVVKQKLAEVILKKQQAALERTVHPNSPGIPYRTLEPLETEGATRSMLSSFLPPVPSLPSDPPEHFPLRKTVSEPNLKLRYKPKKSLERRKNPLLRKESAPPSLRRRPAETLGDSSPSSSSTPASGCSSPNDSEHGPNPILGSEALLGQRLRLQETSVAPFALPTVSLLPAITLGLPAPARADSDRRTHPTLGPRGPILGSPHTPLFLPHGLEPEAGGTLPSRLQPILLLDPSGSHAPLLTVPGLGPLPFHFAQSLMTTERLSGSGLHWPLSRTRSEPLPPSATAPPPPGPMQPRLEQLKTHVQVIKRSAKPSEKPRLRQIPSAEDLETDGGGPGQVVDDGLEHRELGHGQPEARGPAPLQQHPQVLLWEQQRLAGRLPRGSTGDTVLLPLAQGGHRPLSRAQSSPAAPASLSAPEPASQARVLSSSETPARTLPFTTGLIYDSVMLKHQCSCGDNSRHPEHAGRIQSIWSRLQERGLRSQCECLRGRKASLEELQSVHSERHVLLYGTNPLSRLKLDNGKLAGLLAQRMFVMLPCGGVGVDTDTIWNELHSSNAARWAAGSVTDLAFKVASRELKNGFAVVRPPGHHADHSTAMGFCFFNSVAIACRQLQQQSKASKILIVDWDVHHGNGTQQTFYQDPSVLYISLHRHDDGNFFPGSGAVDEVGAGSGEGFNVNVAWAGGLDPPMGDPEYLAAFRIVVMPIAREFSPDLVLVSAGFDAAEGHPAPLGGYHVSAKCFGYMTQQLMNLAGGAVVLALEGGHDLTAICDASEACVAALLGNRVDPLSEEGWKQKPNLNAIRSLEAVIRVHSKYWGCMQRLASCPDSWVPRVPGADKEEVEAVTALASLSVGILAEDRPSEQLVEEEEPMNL
Described as above. Type of test: biochemical. The note with it: read-out: % Inhibition of Control Values.

Test [6] concerns MLL4(h) complex. The test can be described thus: Epigenetic enzyme assay, Methyltransferases (MTs). The note with it: for % Inhibition of Control Values: 10 μM. The format is biochemical, human.
Test [7] concerns the target PRMT3 (h) (Homo sapiens, UniProt O60678). The test can be described thus: Epigenetic enzyme assay, Methyltransferases (MTs). The format is biochemical. The note with it: for inhibition at 10 µM: read-out: % Inhibition of Control Values.

Structures are written as SMILES.

PRMT3 (h), sequence (O60678 whole entry): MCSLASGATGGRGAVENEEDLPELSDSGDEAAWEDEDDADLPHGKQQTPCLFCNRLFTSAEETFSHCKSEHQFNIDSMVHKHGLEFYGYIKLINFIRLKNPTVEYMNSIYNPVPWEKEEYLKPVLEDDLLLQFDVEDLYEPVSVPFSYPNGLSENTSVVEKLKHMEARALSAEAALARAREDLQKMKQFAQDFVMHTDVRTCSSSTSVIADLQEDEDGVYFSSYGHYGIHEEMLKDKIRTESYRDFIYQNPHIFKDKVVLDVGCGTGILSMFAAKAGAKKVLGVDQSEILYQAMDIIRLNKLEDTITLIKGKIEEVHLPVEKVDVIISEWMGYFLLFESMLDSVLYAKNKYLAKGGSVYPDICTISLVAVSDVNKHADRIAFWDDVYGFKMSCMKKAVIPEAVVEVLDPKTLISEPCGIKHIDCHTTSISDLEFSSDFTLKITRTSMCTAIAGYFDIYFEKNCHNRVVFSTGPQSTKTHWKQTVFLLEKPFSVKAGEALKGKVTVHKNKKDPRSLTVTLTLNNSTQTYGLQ

`CC(C)=CCC[C@H](C)[C@@H]1CC[C@@H](C)c2c1cc(C)c(O)c2O` [Compound 4, 7,8-dihydroxyserrulat-14-ene]: in test [1], the EC50 is 28.5 µM, the GI50 was determined as 27.4 µM and the IC50 is 28.5 µM. In test [2], the EC50 stood at 6.71 µM, the 50% growth inhibitory concentration (GI50) amounted to 6.71 µM and the IC50 came to 6.71 µM.
`CC(C)=CCC[C@@H]1COc2c(C)cc(O)c3c2[C@H]1CC[C@H]3C` [Compound 3, 5,18-epoxy-8-hydroxyserrulat-14-ene]: the inhibition at 10 µM in test [3] was 21%; in test [4], -18%; in test [5] it was 16%; in test [7] it was 14%. Besides, in test [6], the “% Inhibition of Control Values” was −4%.
Turning to `CC(C)=CCC[C@@H]1C(O)Oc2c(C)cc(O)c3c2[C@H]1CC[C@H]3C` (stereo partly shown) [Compound 2, 5,18-epoxyserrulat-14-en-8,18-diol], the inhibition at 10 µM was 23% in test [3], 2% in test [4], -6% in test [5] and 50% in test [7]. Moreover, the “% Inhibition of Control Values” in test [6] is listed as −18%. The results for the half-maximal effective concentration (EC50) in test [1] and in test [2] were 11.5 µM and 3.92 µM, respectively. For the same compound, the GI50 in test [1] amounted to 10.8 µM; in test [2] it was 3.92 µM. Besides, the results for the IC50 in test [1] and in test [2] were 11.5 µM and 3.92 µM, respectively.
Consider `Nc1ncnc2c1ncn2[C@@H]1O[C@H](CSCC[C@H](N)C(=O)O)[C@@H](O)[C@H]1O` [SAH], for which the IC50 in test [6] (read-out: Reference IC50) came to 0.55 µM; in test [7] (read-out: Reference IC50), 0.86 µM.
In the case of `CC(C)=CCC[C@H](CO)[C@@H]1CC[C@@H](C)c2c1cc(C)c(O)c2O` [Compound 1, 7,8,18-trihydroxyserrulat-14-ene], the inhibition at 10 µM was 58% in test [3], 12% in test [4], -111% in test [5] and 22% in test [7]. Also, the “% Inhibition of Control Values” in test [6] is reported as −16%. Further, the “Relative cell count (%) Mean” value in test [1] (3.00E+00 microM) is listed as 1.3%; in test [1] (3.00E+01 microM), 0.2%; in test [1] (3.01E−01 microM), 100.2%; in test [1] (3.01E−02 microM), 93.4%; in test [1] (3.02E−03 microM), 100.0%; in test [1] (9.49E+00 microM), 0.3%. In addition, the “Relative cell count (%) Mean” value in test [1] (9.51E−01 microM) is given as 62.3%; in test [1] (9.52E−02 microM), 98.1%; in test [1] (9.53E−03 microM), 98.0%; in test [1] (9.55E−04 microM), 90.2%; in test [2] (IM-9, 3.00E+00 microM), 0.1%; in test [2] (IM-9, 3.00E+01 microM) it was 0.0%. Besides, the “Relative cell count (%) Mean” value in test [2] (IM-9, 3.01E−01 microM) came out at 97.5%; in test [2] (IM-9, 3.01E−02 microM), 107.3%; in test [2] (IM-9, 3.02E−03 microM), 102.8%; in test [2] (IM-9, 9.49E+00 microM), 0.1%; in test [2] (IM-9, 9.51E−01 microM), 0.0%; in test [2] (IM-9, 9.52E−02 microM), 97.7%. In addition, the “Relative cell count (%) Mean” value in test [2] (IM-9, 9.53E−03 microM) is 103.1%; in test [2] (IM-9, 9.55E−04 microM), 94.9%. The 50% effective concentration (EC50) in test [1] amounted to 1.02 µM; in test [2], 0.42 µM. Besides, the figures for the GI50 in test [1] and in test [2] were 1 µM and 0.42 µM, respectively. In addition, the IC50 came to 1.02 µM in test [1] and 0.42 µM in test [2].

The values above are taken from patent US11331299B2, “Medicinal use of serrulatane diterpenes” (The University of Sydney, priority 2016, dated 2022).
